The text below walks through data of patent US6673376B1, “Method of preparing a solution, in particular a dialysis or infusion solution” (Fresenius Medical Care Deutschland GmbH, priority 1998, dated 2004).

The conditions of data set [1]: for pH of finished solution: 1st-3rd test. The source says:
This concentrate was then mixed with a 1 molar sodium bi-carbonate solution and diluted with the stated amount of water.

A short description of data set [2]: Dissolving rate (time until solution is clear) of succinic acid and succinic acid-NaHCO3 adduct. The class given is physicochemical. The following applies: for Time until solution is clear: three runs. How it is done: This solution is stirred and heated briefly until all the solids have dissolved. Then the solution is dried to constant weight (for approximately 48 hours) at approximately 105° C. in a drying oven. The product, which forms amorphous crystals, is homogenized in a mortar.

Setting [3] is: 12.98 g/L, 0.11 mol/l, concentrate 0.22 meq/L.
Setting [4] is: 19.47 g/L, 0.165 mol/l, concentrate 0.33 meq/L.
Setting [5] is: 25.96 g/L, 0.22 mol/L, concentrate 0.44 meq/L.
[6] abbreviates: 38.94 g/L, 0.33 mol/L, concentrate 0.66 meq/L.
[7] abbreviates: 58.11 g/L, 0.495 mol/L, concentrate 0.99 meq/L.

Values joined by “and” are separate entries in the source; they are usually repeats but may differ in a detail not shown here. Equal entries are not always repeated. Where two headings read alike, the source gives them in different places. Some results are limits rather than exact numbers.

Turning to `O=C(O)CCC(=O)O` [succinic acid], the “pH of finished solution” value was 7.08 and 7.09 in data set [1] (35 mL 1 molar NaHCO3, 951 mL water, 14 mL 0.15 molar succinic acid); 7.16 and 7.17 in data set [1] (35 mL 1 molar NaHCO3, 953 mL water, 12 mL 0.15 molar succinic acid); 7.26 and 7.27 in data set [1] (35 mL 1 molar NaHCO3, 955 mL water, 10 mL 0.15 molar succinic acid); 7.42 and 7.39 and 7.41 in data set [1] (35 mL 1 molar NaHCO3, 957 mL water, 8 mL 0.15 molar succinic acid); 7.14 and 7.16 and 7.19 in data set [1] (40 mL 1 molar NaHCO3, 946 mL water, 14 mL 0.15 molar succinic acid); 7.24 and 7.25 in data set [1] (40 mL 1 molar NaHCO3, 948 mL water, 12 mL 0.15 molar succinic acid). Besides, the “pH of finished solution” value was 7.34 and 7.35 and 7.32 in data set [1] (40 mL 1 molar NaHCO3, 950 mL water, 10 mL 0.15 molar succinic acid); 7.46 and 7.47 and 7.48 in data set [1] (40 mL 1 molar NaHCO3, 952 mL water, 8 mL 0.15 molar succinic acid). Moreover, the “concentration sufficient to adjust a physiological pH” value in data set [1] (in terms of the finished ready-to-use solution, relatively high sodium bicarbonate concentration) stood at 1.5 mmol/L. Besides, the “Time until solution is clear, Average” value in data set [2] (setting [3]) was 210; in data set [2] (setting [4]), 250; in data set [2] (setting [5]), 358; in data set [2] (setting [6]) it was 460; in data set [2] (setting [7]), >900. For the same compound, the “Time until solution is clear” value is 200 and 210 and 220 in data set [2] (setting [3]); 230 and 250 and 270 in data set [2] (setting [4]); 400 and 375 and 300 in data set [2] (setting [5]); 510 and 420 and 450 in data set [2] (setting [6]); 900 and >1080 and 960 in data set [2] (setting [7]). The dissolution rate result in data set [2] (in water, in words) is reported as “very low”.
